# In ChEMBL document CHEMBL4842340, “Development of Cagrilintide, a Long-Acting Amylin Analogue” (J Med Chem, 2021):
# *1 amine or outer side, *2 acyl side, *3 side chain or, on linkers, in order; H or OH if unused. Where a SMILES comes first, the peptide text is derived from it. Bridges are numbered along the chain shown (N, C = ends). The star is where a group is joined. C20 diacid = O=C(O)CCCCCCCCCCCCCCCCCCC(=O)*; γGlu = O=C(O)[C@H](CCC(=O)[*:2])N[*:1]
# Legend:
# Rattus norvegicus [1] = assay: Reduction in food intake in Sprague-Dawley rat at 30 nmol/kg, sc administered as single dose measured after 24 to 48 hrs relative to control; format: functional; set-up: scale not given: the % may be the effect or the level left; settings: time 24-48 hrs
# Rattus norvegicus [2] = assay: Reduction in food intake in Sprague-Dawley rat at 30 nmol/kg, sc administered as single dose measured upto 24 hrs relative to control; format: functional; set-up: scale not given: the % may be the effect or the level left; settings: time hrs <=24
# [3] = Displacement of [125I]-calcitonin from human calcitonin receptor expressed in tk-ts 13 cells measured after 120 mins by scintillation proximity assay; format: cell-based; settings: tk-ts13
# Insulin (Homo sapiens) [4] = biological target: Insulin (Homo sapiens) (UniProt P01308); assay: Effect on insulin (unknown origin) amyloid fibril formation assessed as lag time in glycyl-glycine buffer at pH 4 measured after 45 hrs by thioflavin-T fluorescence assay
# Homo sapiens [5] = organism: Homo sapiens; assay: Ratio of EC50 for human calcitonin receptor expressed in BHK570 cells to EC50 for human AMY3R (CT+RAMP3) expressed in Hollex1 cells; format: cell-based
# [6] = Displacement of [125I]-amylin from human AMY3R (CTR+RAMP3) expressed in BHK-13 cells measured after 120 mins by scintillation proximity assay; format: cell-based
# [7] = Agonist activity at rat calcitonin receptor expressed in BHK-13 cells assessed as increase in intracellular cAMP concentration incubated for 25 mins by CRE luciferase reporter gene assay; format: cell-based; settings: BHK-13, 25 min
# Rattus norvegicus [8] = organism: Rattus norvegicus; assay: Ratio of EC50 for rat calcitonin receptor expressed in BHK-13 cells to EC50 for rat AMY3R (CT+RAMP3) expressed in tk-ts13 cells; format: cell-based
# Rattus norvegicus [9] = organism: Rattus norvegicus; assay: Ratio of IC50 for displacement of [125I]-calcitonin from rat calcitonin receptor expressed in tk-ts 13 cells to IC50 for displacement of [125I]-amylin from rat AMY3R (CTR+RAMP3) expressed in BHK-13 cells; format: cell-based
# [10] = Agonist activity at rat AMY3R (CT+RAMP3) expressed in tk-ts13 cells assessed as increase in intracellular cAMP level incuabted for 25 mins by CRE luciferase reporter gene assay; format: cell-based; settings: tk-ts13, 25 min
# [11] = Solubility of the compound in lactate at pH 3 by UPLC analysis; format: physicochemical; settings: lactate buffer
# [12] = Solubility of the compound in lactate at pH 5 by UPLC analysis; format: physicochemical; settings: lactate buffer
# [13] = Displacement of [125I]-calcitonin from rat calcitonin receptor expressed in tk-ts 13 cells measured after 120 mins by scintillation proximity assay; format: cell-based; settings: tk-ts13
# Rattus norvegicus [14] = assay: Reduction in food intake in Sprague-Dawley rat at 3 nmol/kg, sc administered as single dose measured after 24 to 48 hrs relative to control; format: functional; set-up: scale not given: the % may be the effect or the level left; settings: time 24-48 hrs
# Rattus norvegicus [15] = assay: Reduction in food intake in Sprague-Dawley rat at 3 nmol/kg, sc administered as single dose measured upto 24 hrs relative to control; format: functional; set-up: scale not given: the % may be the effect or the level left; settings: time hrs <=24
# Insulin (Homo sapiens) [16] = biological target: Insulin (Homo sapiens) (UniProt P01308); assay: Effect on insulin (unknown origin) amyloid fibril formation assessed as peptide recovery in glycyl-glycine buffer at pH 4 measured after 45 hrs by thioflavin-T fluorescence assay relative to control; set-up: concentration or dose not given beside the values
# [17] = Solubility of the compound in bis-tris propane at pH 8 by UPLC analysis; format: physicochemical; settings: bis-tris propane buffer
# [18] = Solubility of the compound in lactate at pH 4 by UPLC analysis; format: physicochemical; settings: lactate buffer
# [19] = Solubility of the compound in bis-tris propane at pH 7 by UPLC analysis; format: physicochemical; settings: bis-tris propane buffer
# Homo sapiens [20] = organism: Homo sapiens; assay: Ratio of IC50 for displacement of [125I]-calcitonin from human calcitonin receptor expressed in tk-ts 13 cells to IC50 for displacement of [125I]-amylin from human AMY3R (CTR+RAMP3) expressed in BHK-13 cells; format: cell-based
# [21] = Agonist activity at human calcitonin receptor expressed in BHK570 cells assessed as increase in intracellular cAMP concentration incubated for 3 hrs in absence of albumin by CRE luciferase reporter gene assay; format: cell-based; settings: BHK570, 3 h
# [22] = Displacement of [125I]-amylin from rat AMY3R (CTR+RAMP3) expressed in BHK-13 cells measured after 120 mins by scintillation proximity assay; format: cell-based
# [23] = Solubility of the compound in bis-tris propane at pH 7.5 by UPLC analysis; format: physicochemical; settings: bis-tris propane buffer
# [24] = Solubility of the compound in bis-tris propane at pH 6.5 by UPLC analysis; format: physicochemical; settings: bis-tris propane buffer
# [25] = Solubility of the compound in bis-tris propane at pH 6 by UPLC analysis; format: physicochemical; settings: bis-tris propane buffer
# [26] = Agonist activity at human AMY3R (CT+RAMP3) expressed in Hollex1 cells incubated for 3 hrs by luminescence assay; format: cell-based; settings: Hollex1, 3 h
# Chain of Insulin (Homo sapiens) (P01308 whole entry): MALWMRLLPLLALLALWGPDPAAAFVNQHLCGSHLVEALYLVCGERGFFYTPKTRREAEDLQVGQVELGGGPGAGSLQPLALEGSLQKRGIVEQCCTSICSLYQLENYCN
IC50 [3] [nM],TIME (Insulin (Homo sapiens) [4]) [h],IC50 [6] [nM],EC50 [7] [nM],EC50 [10] [nM],solubility [11] [µM],solubility [12] [µM],IC50 [13] [nM],Activity (Insulin (Homo sapiens) [16]) [%],solubility [18] [µM],solubility [19] [µM],EC50 [21] [nM],solubility [25] [µM],EC50 [26] [nM],Structure (SMILES),Activity (Rattus norvegicus [1]) [%],Activity (Rattus norvegicus [2]) [%],Ratio EC50 (Homo sapiens [5]),Ratio EC50 (Rattus norvegicus [8]),Ratio IC50 (Rattus norvegicus [9]),Activity (Rattus norvegicus [14]) [%],further results
,,,,,,,,,,,,,,CC[C@H](C)[C@H](NC(=O)[C@H](CCC(=O)O)NC(=O)CNC(=O)[C@H](Cc1ccccc1)NC(=O)[C@H](CC(N)=O)NC(=O)[C@H](CC(N)=O)NC(=O)[C@H](CO)NC(=O)[C@H](CO)NC(=O)[C@H](CCCNC(=N)N)NC(=O)[C@H](Cc1cnc[nH]1)NC(=O)[C@H](CC(C)C)NC(=O)[C@H](Cc1ccccc1)NC(=O)[C@H](CCC(=O)O)NC(=O)[C@H](C)NC(=O)[C@H](CC(C)C)NC(=O)[C@H](CCCNC(=N)N)NC(=O)[C@H](CCC(N)=O)NC(=O)[C@@H](NC(=O)[C@H](C)NC(=O)[C@@H]1CSSC[C@H](NC(=O)[C@H](Cc2cnc[nH]2)NC(=O)CC[C@H](NC(=O)CCCCCCCCCCCCCCCCCCC(=O)O)C(=O)O)C(=O)N[C@@H](CC(N)=O)C(=O)N[C@@H]([C@@H](C)O)C(=O)N[C@@H](C)C(=O)N[C@@H]([C@@H](C)O)C(=O)N1)[C@@H](C)O)C(=O)N[C@@H](CC(C)C)C(=O)N[C@@H](CO)C(=O)N[C@@H](CCCNC(=N)N)C(=O)N[C@H](C(=O)N[C@@H](CC(N)=O)C(=O)N[C@H](C(=O)NCC(=O)N[C@@H](CO)C(=O)N[C@@H](CC(N)=O)C(=O)N[C@H](C(=O)N[C@@H](Cc1ccc(O)cc1)C(N)=O)[C@@H](C)O)C(C)C)[C@@H](C)O,46,53,,,,,
0.264,26,0.293,0.109,0.121,200,200,0.134,100,200,200,0.067,200,0.091,CC[C@H](C)[C@H](NC(=O)[C@@H]1CCCN1C(=O)CNC(=O)[C@H](Cc1ccccc1)NC(=O)[C@H](CC(N)=O)NC(=O)[C@H](CC(N)=O)NC(=O)[C@H](CO)NC(=O)[C@H](CO)NC(=O)[C@H](Cc1c[nH]cn1)NC(=O)[C@H](Cc1cnc[nH]1)NC(=O)[C@H](CC(C)C)NC(=O)[C@H](Cc1ccccc1)NC(=O)[C@H](CCC(=O)O)NC(=O)[C@H](C)NC(=O)[C@H](CC(C)C)NC(=O)[C@H](CCCNC(=N)N)NC(=O)[C@H](CCC(N)=O)NC(=O)[C@@H](NC(=O)[C@H](C)NC(=O)[C@@H]1CSSC[C@H](NC(=O)[C@H](Cc2cnc[nH]2)NC(=O)CC[C@H](NC(=O)CCCCCCCCCCCCCCCCCCC(=O)O)C(=O)O)C(=O)N[C@@H](CC(N)=O)C(=O)N[C@@H]([C@@H](C)O)C(=O)N[C@@H](C)C(=O)N[C@@H]([C@@H](C)O)C(=O)N1)[C@@H](C)O)C(=O)N[C@@H](CC(C)C)C(=O)N1CCC[C@H]1C(=O)N1CCC[C@H]1C(=O)N[C@H](C(=O)N[C@@H](CC(N)=O)C(=O)N[C@H](C(=O)NCC(=O)N[C@@H](CO)C(=O)N[C@@H](CC(N)=O)C(=O)N[C@H](C(=O)N1CCC[C@H]1C(N)=O)[C@@H](C)O)C(C)C)[C@@H](C)O ({C20 diacid-γGlu}-HCNTATCATQRLAEFLHHSSNNFGPILPPTNVGSNTP-NH2; disulfide 2-7),,,1,1,2,67,Activity (Rattus norvegicus [15]): 68%; solubility [17]: 200 µM; Ratio IC50 (Homo sapiens [20]): 1; IC50 [22]: 0.074 nM; solubility [23]: 200 µM; solubility [24]: 200 µM
,45,,6.76,0.082,200,200,,50,200,9,0.407,200,0.072,CC[C@H](C)[C@H](NC(=O)[C@@H]1CCCN1C(=O)CNC(=O)[C@H](Cc1ccccc1)NC(=O)[C@H](CC(N)=O)NC(=O)[C@H](CC(N)=O)NC(=O)[C@H](CO)NC(=O)[C@H](CO)NC(=O)[C@H](Cc1cnc[nH]1)NC(=O)[C@H](CCCNC(=N)N)NC(=O)[C@H](CC(C)C)NC(=O)[C@H](Cc1ccccc1)NC(=O)[C@H](CCC(=O)O)NC(=O)[C@H](C)NC(=O)[C@H](CC(C)C)NC(=O)[C@H](CCCNC(=N)N)NC(=O)[C@H](CCC(N)=O)NC(=O)[C@@H](NC(=O)[C@H](C)NC(=O)[C@@H]1CSSC[C@H](NC(=O)[C@H](Cc2cnc[nH]2)NC(=O)[C@H](Cc2cnc[nH]2)NC(=O)[C@H](Cc2cnc[nH]2)NC(=O)CC[C@H](NC(=O)CCCCCCCCCCCCCCCCCCC(=O)O)C(=O)O)C(=O)N[C@@H](CC(N)=O)C(=O)N[C@@H]([C@@H](C)O)C(=O)N[C@@H](C)C(=O)N[C@@H]([C@@H](C)O)C(=O)N1)[C@@H](C)O)C(=O)N[C@@H](CC(C)C)C(=O)N1CCC[C@H]1C(=O)N1CCC[C@H]1C(=O)N[C@H](C(=O)N[C@@H](CC(N)=O)C(=O)N[C@H](C(=O)NCC(=O)N[C@@H](CO)C(=O)N[C@@H](CC(N)=O)C(=O)N[C@H](C(=O)N[C@@H](Cc1ccc(O)cc1)C(N)=O)[C@@H](C)O)C(C)C)[C@@H](C)O ({C20 diacid-γGlu}-HHHCNTATCATQRLAEFLRHSSNNFGPILPPTNVGSNTY-NH2; disulfide 4-9),45,70,6,82,,,
0.039,12,0.192,0.539,0.188,200,200,0.087,26,200,160,0.107,200,0.121,CC[C@H](C)[C@H](NC(=O)[C@@H]1CCCN1C(=O)CNC(=O)[C@H](Cc1ccccc1)NC(=O)[C@H](CC(N)=O)NC(=O)[C@H](CC(N)=O)NC(=O)[C@H](CO)NC(=O)[C@H](CO)NC(=O)[C@H](Cc1cnc[nH]1)NC(=O)[C@H](Cc1cnc[nH]1)NC(=O)[C@H](CC(C)C)NC(=O)[C@H](Cc1ccccc1)NC(=O)[C@H](CCC(=O)O)NC(=O)[C@H](C)NC(=O)[C@H](CC(C)C)NC(=O)[C@H](CCCNC(=N)N)NC(=O)[C@H](CCC(N)=O)NC(=O)[C@@H](NC(=O)[C@H](C)NC(=O)[C@@H]1CSSC[C@H](NC(=O)[C@H](CCCNC(=N)N)NC(=O)CC[C@H](NC(=O)CCCCCCCCCCCCCCCCCCC(=O)O)C(=O)O)C(=O)N[C@@H](CC(N)=O)C(=O)N[C@@H]([C@@H](C)O)C(=O)N[C@@H](C)C(=O)N[C@@H]([C@@H](C)O)C(=O)N1)[C@@H](C)O)C(=O)N[C@@H](CC(C)C)C(=O)N1CCC[C@H]1C(=O)N1CCC[C@H]1C(=O)N[C@H](C(=O)N[C@@H](CC(N)=O)C(=O)N[C@H](C(=O)NCC(=O)N[C@@H](CO)C(=O)N[C@@H](CC(N)=O)C(=O)N[C@H](C(=O)N[C@@H](Cc1ccc(O)cc1)C(N)=O)[C@@H](C)O)C(C)C)[C@@H](C)O ({C20 diacid-γGlu}-RCNTATCATQRLAEFLHHSSNNFGPILPPTNVGSNTY-NH2; disulfide 2-7),,,1,3,3,53,Activity (Rattus norvegicus [15]): 56%; solubility [17]: 200 µM; Ratio IC50 (Homo sapiens [20]): 0.2; IC50 [22]: 0.029 nM; solubility [23]: 200 µM; solubility [24]: 174 µM
